The values that follow come from patent EP2818472A1, “Imidazo[4,5-c]pyridine and pyrrolo[3,2-c]pyridine compounds as G-protein-coupled receptor kinase 5 (GRK5) modulators” (Max-Planck-Gesellschaft zur Förderung der Wissenschaften …, priority 2013, dated 2014).

The subject of this assay is beta-TC6 cells. The assay is described as follows: Insulin HTRF assay (relative activity Ar) in beta-TC6 cells. The assay is classed as cell-based, mouse. Conditions: Mus musculus, Beta-TC6, 4 h, insulin HTRF, supernatant of beta-TC6 cells, incubation with test compound at 37°C for 2, 3, 4h; read-out: Ar (relative activity). The gist of the method:
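beta-TC6 cells (15k/well, seeded 24 or 48 h) washed, then exposed to compound in induction buffer (0.5% DMSO final) for 2, 3 or 4 h at 37°C.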
In general terms: TR-FRET usually uses a lanthanide donor and a delayed reading to cut background.

`Oc1cccc(Nc2cc3[nH]c(-c4ccccc4)cc3cn2)c1` [Compound 180, 3-[(2-phenyl-1H-pyrrolo[3,2-c]pyridin-6-yl)amino]phenol]: the Emax lay in the range of 50 to 100%.

With `CC(=O)N(C)c1cccc(-c2cc3cnc(Nc4ccc(N5CCOCC5)cc4)cc3n2C)c1` [Compound 163, N-methyl-N-[3-[1-methyl-6-(4-morpholinoanilino)pyrrolo[3,2-c]pyridin-2-yl]phenyl]acetamide], the Emax was 50 to 100%. On to `Cn1c(-c2cccnc2)cc2cnc(Nc3cccnc3)cc21` [Compound 87, 1-methyl-N,2-bis(3-pyridyl)pyrrolo[3,2-c]pyridin-6-amine], for which the Emax fell in the range of 50 to 100%.

`CC(=O)Nc1ccc(Nc2nccc3c2cc(-c2ccsc2)n3C)cc1` [Compound 270, N-[4-[[1-methyl-2-(3-thienyl)pyrrolo[3,2-c]pyridin-4-yl]amino]phenyl]acetamide]: the Emax lay within 50 to 100%. Next, `CNc1nc2cnc(Nc3ccc(OC)c(OC)c3)cc2n1Cc1ccco1` [Compound 520, N6-(3,4-dimethoxyphenyl)-1-(2-furylmethyl)-N2-methyl-imidazo[4,5-c]pyridine-2,6-diamine]: 50 to 100%. Next, `COc1cc(Nc2cc3c(cn2)cc(-c2cccc(N(C)C(C)=O)c2)n3C)cc(OC)c1OC` [Compound 158, N-methyl-N-[3-[1-methyl-6-(3,4,5-trimethoxyanilino)pyrrolo[3,2-c]pyridin-2-yl]phenyl]acetamide]: 50 to 100%; `CN(C)C(=O)c1ccc(-c2cc3c(Nc4ccccn4)nccc3n2C)cc1` [Compound 219, N,N-di methyl-4-[1-methyl-4-(2-pyridylamino)pyrrolo[3,2-c]pyridin-2-yl]benzamide]: 30 to 50%.

Consider `CN(C)c1ccc(-c2cc3c(Nc4ccc(S(C)(=O)=O)cc4)nccc3n2C)cc1` [Compound 230, 2-(4-dimethylaminophenyl)-1-methyl-N-(4-methylsulfonylphenyl)pyrrolo[3,2-c]pyridin-4-amine], for which the Emax was 30 to 50%. Then `COC(=O)c1ccc(Nc2cc3[nH]c(-c4ccccn4)cc3cn2)cc1` [Compound 67, methyl 4-[[2-(2-pyridyl)-1H-pyrrolo[3,2-c]pyridin-6-yl]amino]benzoate], with 30 to 50%; and `CNc1nc2cnc(Nc3ccc(F)c(Cl)c3)cc2n1-c1cc(OC)c(OC)c(OC)c1` [Compound 753, N6-(3-chloro-4-fluoro-phenyl)-N2-methyl-1-(3,4,5-trimethoxyphenyl)imidazo[4,5-c]pyridine-2,6-diamine], with 0 to 30%; and `Cn1cc(-c2cc3cnc(Nc4cccc(NS(C)(=O)=O)c4)cc3n2Cc2ccccc2)cn1` [Compound 156, N-[3-[[1-benzyl-2-(1-methylpyrazol-4-yl)pyrrolo[3,2-c]pyridin-6-yl]amino]phenyl]methanesulfonamide], with 30 to 50%.

Take `CNc1nc2cnc(-c3cccs3)cc2n1Cc1cccnc1` [Compound 566, N-methyl-1-(3-pyridylmethyl)-6-(2-thienyl)imidazo[4,5-c]pyridin-2-amine]: the Emax is 30 to 50%.

As for `CN(C)C(=O)c1ccc(-c2cc3cnc(Nc4ccc(Oc5ccccc5)cc4)cc3[nH]2)cc1` [Compound 25, N,N-dimethyl-4-[6-(4-phenoxyanilino)-1H-pyrrolo[3,2-c]pyridin-2-yl]benzamide], the Emax was 0 to 30%. Turning to `Cn1c(NCc2ccccc2)nc2cnc(-c3ccccc3)cc21` [Compound 836, N-benzyl-1-methyl-6-phenyl-imidazo[4,5-c]pyridin-2-amine], the Emax fell in the range of 30 to 50%. For `Cn1c(Nc2ccccc2)nc2cnc(Nc3ccncc3)cc21` [Compound 636, 1-methyl-N2-phenyl-N6-(4-pyridyl)imidazo[4,5-c]pyridine-2,6-diamine], the Emax lay in the range of 50 to 100%.

With `CN(C)C(=O)c1ccc(Nc2cc3c(cn2)cc(-c2cccnc2)n3C)cc1` [Compound 95, N,N-dimethyl-4-[[1-methyl-2-(3-pyridyl)pyrrolo[3,2-c]pyridin-6-yl]amino]benzamide], the Emax fell in the range of 50 to 100%.
